In patent publication US10058550B2, “Methods of treating heart failure” (priority 2015, dated 2018):

Biological target: human APJ receptor (Homo sapiens (Human), UniProt P35414)
Assay: biochemical
Format: biochemical
Conditions: read-out: Activity hAPJ SPA EC50 IP
Outline: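 Membranes from CHO cells stably expressing cloned human APJ were incubated with WGA SPA beads in 20 mM HEPES pH 7.5, 5 mM MgCl2, 0.1% BSA, 200 mM NaCl and 3 μM GDP. Reaction started with 0.2 nM [35S]GTPγS ± ligands, 90 min at RT. EC50 obtained by non-linear regression as mean of independent experiments.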

Chain of human APJ receptor (P35414 whole entry): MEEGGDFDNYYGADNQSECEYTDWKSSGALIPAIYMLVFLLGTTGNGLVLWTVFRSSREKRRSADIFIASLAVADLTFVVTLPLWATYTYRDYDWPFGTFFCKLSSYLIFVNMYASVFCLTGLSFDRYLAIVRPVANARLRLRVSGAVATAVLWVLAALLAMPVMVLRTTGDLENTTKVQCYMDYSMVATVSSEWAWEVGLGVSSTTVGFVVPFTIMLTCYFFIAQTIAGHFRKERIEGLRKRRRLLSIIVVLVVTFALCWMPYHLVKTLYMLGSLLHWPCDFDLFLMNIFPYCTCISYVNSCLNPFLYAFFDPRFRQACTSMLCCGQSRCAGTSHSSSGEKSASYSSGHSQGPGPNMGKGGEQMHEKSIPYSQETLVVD

COc1ncnc(OC)c1-n1c(NS(=O)(=O)[C@@H]2C[C@H](OC)CN(c3ncc(F)cn3)C2)nnc1-c1cccnc1 (stereo in doubt) [Example 813.0, (3S,5R)-N-(4-(4,6-dimethoxy-5-pyrimidinyl)-5-(3-pyridinyl)-4H-1,2,4-triazol-3-yl)-1-(5-fluoro-2-pyrimidinyl)-5-methoxy-3-piperidinesulfonamide, (3R,5S)-N-(4-(4,6-dimethoxy-5-pyrimidinyl)-5-(3-pyridinyl)-4H-1,2,4-triazol-3-yl)-1-(5-fluoro-2-pyrimidinyl)-5-methoxy-3-piperidinesulfonamide] showed an EC50 of 0.14 µM.

COc1ncnc(OC)c1-n1c(NS(=O)(=O)[C@@H]2C[C@H](OC)CN(c3ncc(F)cn3)C2)nnc1-c1cccnc1 (stereo in doubt) [Example 814.0, (3R,5S)-N-(4-(4,6-dimethoxy-5-pyrimidinyl)-5-(3-pyridinyl)-4H-1,2,4-triazol-3-yl)-1-(5-fluoro-2-pyrimidinyl)-5-methoxy-3-piperidinesulfonamide, (3R,5S)-N-(4-(4,6-dimethoxy-5-pyrimidinyl)-5-(3-pyridinyl)-4H-1,2,4-triazol-3-yl)-1-(5-fluoro-2-pyrimidinyl)-5-methoxy-3-piperidinesulfonamide] showed an EC50 of 0.56 µM.

In the case of COc1ncnc(OC)c1-n1c(NS(=O)(=O)[C@@H]2C[C@@H](OC)CN(c3ncc(F)cn3)C2)nnc1-c1cccnc1 (stereo in doubt) [Example 815.0, (3S,5S)-N-(4-(4,6-dimethoxy-5-pyrimidinyl)-5-(3-pyridinyl)-4H-1,2,4-triazol-3-yl)-1-(5-fluoro-2-pyrimidinyl)-5-methoxy-3-piperidinesulfonamide, (3R,5R)-N-(4-(4,6-dimethoxy-5-pyrimidinyl)-5-(3-pyridinyl)-4H-1,2,4-triazol-3-yl)-1-(5-fluoro-2-pyrimidinyl)-5-methoxy-3-piperidinesulfonamide], the EC50 is reported as 0.17 µM.

COc1cccc(OC)c1-n1c(NS(=O)(=O)[C@@H]2C[C@@H](OC)CN(c3ncc(F)cn3)C2)nnc1-c1cccnc1 (stereo in doubt) [Example 816.0, (3S,5S)-N-(4-(2,6-dimethoxyphenyl)-5-(3-pyridinyl)-4H-1,2,4-triazol-3-yl)-1-(5-fluoro-2-pyrimidinyl)-5-methoxy-3-piperidinesulfonamide, (3R,5R)-N-(4-(2,6-dimethoxyphenyl)-5-(3-pyridinyl)-4H-1,2,4-triazol-3-yl)-1-(5-fluoro-2-pyrimidinyl)-5-methoxy-3-piperidinesulfonamide] gave an EC50 of 0.018 µM.

With COc1cccc(OC)c1-n1c(NS(=O)(=O)[C@@H]2C[C@H](OC)CN(c3ncc(F)cn3)C2)nnc1-c1cccnc1 (stereo in doubt) [Example 817.0, (3R,5S)-N-(4-(2,6-dimethoxyphenyl)-5-(3-pyridinyl)-4H-1,2,4-triazol-3-yl)-1-(5-fluoro-2-pyrimidinyl)-5-methoxy-3-piperidinesulfonamide, (3S,5R)-N-(4-(2,6-dimethoxyphenyl)-5-(3-pyridinyl)-4H-1,2,4-triazol-3-yl)-1-(5-fluoro-2-pyrimidinyl)-5-methoxy-3-piperidinesulfonamide] the EC50 was 0.016 µM.

For COc1cccc(OC)c1-n1c(NS(=O)(=O)[C@@H]2C[C@H](OC)CN(c3ncc(F)cn3)C2)nnc1-c1cccnc1 (stereo in doubt) [Example 818.0, (3R,5S)-N-(4-(2,6-dimethoxyphenyl)-5-(3-pyridinyl)-4H-1,2,4-triazol-3-yl)-1-(5-fluoro-2-pyrimidinyl)-5-methoxy-3-piperidinesulfonamide, (3S,5R)-N-(4-(2,6-dimethoxyphenyl)-5-(3-pyridinyl)-4H-1,2,4-triazol-3-yl)-1-(5-fluoro-2-pyrimidinyl)-5-methoxy-3-piperidinesulfonamide], the EC50 was 0.11 µM.

Work on COc1cccc(OC)c1-n1c(NS(=O)(=O)[C@@H]2C[C@@H](OC)CN(c3ncc(F)cn3)C2)nnc1-c1cccnc1 (stereo in doubt) [Example 819.0, (3S,5S)-N-(4-(2,6-dimethoxyphenyl)-5-(3-pyridinyl)-4H-1,2,4-triazol-3-yl)-1-(5-fluoro-2-pyrimidinyl)-5-methoxy-3-piperidinesulfonamide, (3R,5R)-N-(4-(2,6-dimethoxyphenyl)-5-(3-pyridinyl)-4H-1,2,4-triazol-3-yl)-1-(5-fluoro-2-pyrimidinyl)-5-methoxy-3-piperidinesulfonamide] yielded an EC50 of 0.033 µM.

Work on COc1cccc(OC)c1-n1c(NS(=O)(=O)[C@H](C)[C@H](OC(C)C)c2cn3ccccc3n2)nnc1-c1cccnc1 (stereo in doubt) [Example 827.0, (1R,2R)-N-(4-(2,6-dimethoxyphenyl)-5-(3-pyridinyl)-4H-1,2,4-triazol-3-yl)-1-imidazo[1,2-a]pyridin-2-yl-1-(1-methylethoxy)-2-propanesulfonamide, (1S,2S)-N-(4-(2,6-dimethoxyphenyl)-5-(3-pyridinyl)-4H-1,2,4-triazol-3-yl)-1-imidazo[1,2-a]pyridin-2-yl-1-(1-methylethoxy)-2-propanesulfonamide] yielded an EC50 of 0.01 µM.

For COc1cccc(OC)c1-n1c(NS(=O)(=O)[C@H](C)[C@H](OC(C)C)c2cn3ccccc3n2)nnc1-c1cccnc1 (stereo in doubt) [Example 828.0, (1R,2R)-N-(4-(2,6-dimethoxyphenyl)-5-(3-pyridinyl)-4H-1,2,4-triazol-3-yl)-1-imidazo[1,2-a]pyridin-2-yl-1-(1-methylethoxy)-2-propanesulfonamide, (1S,2S)-N-(4-(2,6-dimethoxyphenyl)-5-(3-pyridinyl)-4H-1,2,4-triazol-3-yl)-1-imidazo[1,2-a]pyridin-2-yl-1-(1-methylethoxy)-2-propanesulfonamide], the EC50 was 0.48 µM.

COc1cccc(-c2nnc(NS(C)(=O)=O)n2-c2c(OC)cccc2OC)n1 [Example 4.02, N-(4-(2,6-dimethoxyphenyl)-5-(6-methoxypyridin-2-yl)-4H-1,2,4-triazol-3-yl)methanesulfonamide] was tested, and the EC50 was 0.22 µM.

Work on CCS(=O)(=O)Nc1nnc(-c2cccc(OC)n2)n1-c1c(OC)cccc1OC [Example 29.0, N-(4-(2,6-dimethoxyphenyl)-5-(6-methoxypyridin-2-yl)-4H-1,2,4-triazol-3-yl)ethanesulfonamide] yielded an EC50 of 0.15 µM.

With CCS(=O)(=O)Nc1nnc(-c2cccc(C)n2)n1-c1c(OC)cccc1OC [Example 30.0, N-(4-(2,6-dimethoxyphenyl)-5-(6-methylpyridin-2-yl)-4H-1,2,4-triazol-3-yl)ethanesulfonamide] the EC50 was 0.83 µM.

COc1cccc(-c2nnc(NS(=O)(=O)[C@@H](C)[C@H](OC)c3ncc(C)cn3)n2-c2cccnc2)n1 [Example 33.0, (1R,2S)-1-methoxy-N-(5-(6-methoxypyridin-2-yl)-4-(pyridin-3-yl)-4H-1,2,4-triazol-3-yl)-1-(5-methylpyrimidin-2-yl)propane-2-sulfonamide] was tested, and the EC50 was 0.056 µM.

In the case of COc1cccc(-c2nnc(NS(=O)(=O)[C@@H](C)[C@H](OC)c3ncc(C)cn3)n2-c2ccccc2)n1 [Example 34.0, (1R,2S)-1-methoxy-N-(5-(6-methoxypyridin-2-yl)-4-phenyl-4H-1,2,4-triazol-3-yl)-1-(5-methylpyrimidin-2-yl)propane-2-sulfonamide], the EC50 is reported as 0.0042 µM.

For COc1cccc(-c2nnc(NS(=O)(=O)[C@@H](C)[C@H](OC)c3ncc(C)cn3)n2-c2c(OC)ncnc2OC)n1 [Example 35.0, (1R,2S)-N-(4-(4,6-dimethoxypyrimidin-5-yl)-5-(6-methoxypyridin-2-yl)-4H-1,2,4-triazol-3-yl)-1-methoxy-1-(5-methylpyrimidin-2-yl)propane-2-sulfonamide], the EC50 was 0.00054 µM.

COc1cccc(-c2nnc(NS(=O)(=O)[C@@H](C)[C@H](OC)c3ncc(C)cn3)n2-c2cc(C(F)(F)F)cc(C(F)(F)F)c2)n1 [Example 39.0, (1R,2S)-N-(4-(3,5-bis(trifluoromethyl)phenyl)-5-(6-methoxypyridin-2-yl)-4H-1,2,4-triazol-3-yl)-1-methoxy-1-(5-methylpyrimidin-2-yl)propane-2-sulfonamide] gave an EC50 of 0.54 µM.

With COc1cccc(-c2nnc(NS(=O)(=O)[C@@H](C)[C@H](OC)c3ncc(C)cn3)n2-c2c(OC(F)F)cccc2OC(F)F)n1 [Example 41.0, (1R,2S)-N-(4-(2,6-bis(difluoromethoxy)phenyl)-5-(6-methoxypyridin-2-yl)-4H-1,2,4-triazol-3-yl)-1-methoxy-1-(5-methylpyrimidin-2-yl)propane-2-sulfonamide] the EC50 was 0.00022 µM.

COc1cccc(-c2nnc(NS(=O)(=O)[C@@H](C)[C@H](OC)c3ncc(C)cn3)n2-c2ccncc2)n1 [Example 42.0, (1R,2S)-1-methoxy-N-(5-(6-methoxypyridin-2-yl)-4-(pyridin-4-yl)-4H-1,2,4-triazol-3-yl)-1-(5-methylpyrimidin-2-yl)propane-2-sulfonamide] was tested, and the EC50 was 0.051 µM.

COc1cccc(-c2nnc(NS(=O)(=O)[C@@H](C)[C@H](OC)c3ncc(C)cn3)n2-c2ccc(Cl)cc2)n1 [Example 45.0, (1R,2S)-N-(4-(4-chlorophenyl)-5-(6-methoxy-2-pyridinyl)-4H-1,2,4-triazol-3-yl)-1-methoxy-1-(5-methyl-2-pyrimidinyl)-2-propanesulfonamide] gave an EC50 of 0.096 µM.

COc1ccc(-n2c(NS(=O)(=O)[C@@H](C)[C@H](OC)c3ncc(C)cn3)nnc2-c2cccc(OC)n2)cc1 [Example 46.0, (1R,2S)-1-methoxy-N-(4-(4-methoxyphenyl)-5-(6-methoxy-2-pyridinyl)-4H-1,2,4-triazol-3-yl)-1-(5-methyl-2-pyrimidinyl)-2-propanesulfonamide] showed an EC50 of 0.075 µM.

Work on COc1cccc(-c2nnc(NS(=O)(=O)[C@@H](C)[C@H](OC)c3ncc(C)cn3)n2-c2cccc(F)c2)n1 [Example 47.0, (1R,2S)-N-(4-(3-fluorophenyl)-5-(6-methoxy-2-pyridinyl)-4H-1,2,4-triazol-3-yl)-1-methoxy-1-(5-methyl-2-pyrimidinyl)-2-propanesulfonamide] yielded an EC50 of 0.0088 µM.
